Source: PMC7997166, “In Silico Plasma Protein Binding Studies of Selected Group of Drugs Using TLC and HPLC Retention Data” (Pharmaceuticals, 2021)

Experiments:
[1] = NP TLC on control silica gel plates without protein modifier (Rf); format: physicochemical; conditions: silica gel 60 F254 without BSA (control), mobile phase acetonitrile:acetate buffer pH 7.4:methanol 60:20:20, λ = 240 nm
Description: TLC was performed in normal and reversed phase (NP and RP) systems. Aluminum plates with silica gel (Merck, TLC Silica gel 60 F254) were used in the NP system and aluminum plates with silanized silica gel—RP (Merck, TLC Silica gel 60 RP-2 F254, silanized) were used in the RP system. The stationary phase surface modifying protein was bovine serum albumin. A 2-mg/mL solution of BSA (Sigma Aldrich, Bovine serum albumin lyophilised powder) in distilled water was applied on the surface using Desaga Sprayer SG 1 and air-dried.
Drug solutions in methanol (1 mg/mL) were applied on the plates with the Desaga HPTLC-Applicator AS 30, then the plates were developed in the mobile phase composed of acetonitrile, acetate buffer pH 7.4 and methanol, 60:20:20 (v/v/v). All solvents used—water, methanol and acetonitrile—were purchased from J.T. Baker (HPLC Gradient Grade). The acetate buffer (20mM) was prepared by dissolving 1.54 g of ammonium acetate in 1 L of distilled water. The pH was then adjusted with concentrated ammonia solution.
The mobility of the compounds was initially determined on NP and RP plates without the participation of the protein modifier. These were labeled as controls (C). The obtained retardation factor (Rf) values could be used to determine the composition of the mobile phase, as well as the specific effect of the protein modifier on the mobility of the APIs. […]

bovine serum albumin = bovine serum albumin (Bos taurus, UniProt P02769); assay: NP TLC on BSA-impregnated silica gel plates (retardation factor Rf); format: binding; conditions: silica gel 60 F254 impregnated with BSA, mobile phase acetonitrile:acetate buffer pH 7.4:methanol 60:20:20, λ = 240 nm
human serum albumin = human serum albumin (Homo sapiens, UniProt P02768); assay: HPLC on column with immobilized human serum albumin (CHIRALPAK HSA); format: binding; conditions: mobile phase acetate buffer pH 7.4:acetonitrile:methanol 85:10:5; flow 0.9 mL/min; 25 degrees Celsius; void time marker methanol t = 1.63
Chain of human serum albumin (P02768 25-609): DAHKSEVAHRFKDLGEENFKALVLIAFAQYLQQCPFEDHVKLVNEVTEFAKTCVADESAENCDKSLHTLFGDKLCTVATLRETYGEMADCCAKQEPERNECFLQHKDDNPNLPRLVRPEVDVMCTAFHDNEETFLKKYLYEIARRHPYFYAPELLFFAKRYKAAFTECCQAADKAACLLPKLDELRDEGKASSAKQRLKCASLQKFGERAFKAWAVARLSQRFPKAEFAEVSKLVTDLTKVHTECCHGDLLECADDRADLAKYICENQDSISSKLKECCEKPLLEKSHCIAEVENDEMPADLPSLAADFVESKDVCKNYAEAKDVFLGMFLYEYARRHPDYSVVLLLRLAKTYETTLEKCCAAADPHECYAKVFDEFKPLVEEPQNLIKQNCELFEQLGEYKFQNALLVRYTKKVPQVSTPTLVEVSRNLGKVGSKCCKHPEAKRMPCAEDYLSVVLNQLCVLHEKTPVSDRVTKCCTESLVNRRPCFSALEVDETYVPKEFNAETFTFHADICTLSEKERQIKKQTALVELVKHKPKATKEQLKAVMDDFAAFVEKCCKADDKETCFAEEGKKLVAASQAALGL
Description: HPLC analysis was performed on a Perkin Elmer Series 200 apparatus with a UV-VIS spectrometer for detection with an analytical wavelength of 210 nm. The mobile phase consisted of an acetate buffer with pH 7.4:acetonitrile:methanol, 85:10:5 (v/v/v). All solvents used—water, methanol and acetonitrile—were purchased from J.T. Baker (HPLC gradient class). The acetate buffer (10 mM) was prepared by dissolving 0.77 g of ammonium acetate in 1 L of distilled water. The pH was then adjusted with a concentrated ammonia solution.
API solutions in methanol (1 mg/mL, volume of injection: 10 μL) were injected into the HSA column using an automatic autosampler. The flow rate of the mobile phase was 0.9 mL/min. Since the column could not be thermostated, the room temperature was kept constant at 25 degrees Celsius by air conditioning. Chromatographic data (retention factor k and derivative: log k) were obtained for 129 APIs using the TotalChrom software connected to HPLC. Factor k, which is the ratio between the amount of analyte in the stationary phase to the amount in the mobile phase, was obtained from the equation k = (tR − tM)/tM where tR is retention time and tM is void time. The experiment was then repeated, and the collected retention factors (k) were means values from both series.

Chain of bovine serum albumin (P02769 25-607): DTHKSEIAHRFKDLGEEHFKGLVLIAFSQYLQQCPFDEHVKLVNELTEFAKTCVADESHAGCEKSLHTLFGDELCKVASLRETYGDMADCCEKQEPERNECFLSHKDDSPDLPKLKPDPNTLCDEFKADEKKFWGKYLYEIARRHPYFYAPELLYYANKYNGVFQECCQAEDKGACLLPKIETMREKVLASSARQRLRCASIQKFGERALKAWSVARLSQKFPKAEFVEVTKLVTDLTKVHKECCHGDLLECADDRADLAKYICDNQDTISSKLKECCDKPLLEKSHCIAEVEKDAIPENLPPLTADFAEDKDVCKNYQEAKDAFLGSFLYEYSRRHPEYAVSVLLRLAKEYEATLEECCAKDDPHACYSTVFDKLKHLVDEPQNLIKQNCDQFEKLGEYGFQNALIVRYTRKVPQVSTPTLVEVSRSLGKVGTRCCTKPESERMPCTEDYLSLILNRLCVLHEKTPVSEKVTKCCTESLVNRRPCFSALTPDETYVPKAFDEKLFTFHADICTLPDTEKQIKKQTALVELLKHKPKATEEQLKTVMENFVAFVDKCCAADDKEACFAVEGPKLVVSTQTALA

Row | Compound | Rf, control NP plate [1] | Rf, BSA-impregnated NP plate (bovine serum albumin) | retention time (t) on HPLC column with immobilized HSA (human serum albumin)
1 | CN(C)CCC=C1c2ccccc2COc2ccccc21 [doxepin] | 0.34 | 0.31 | –
2 | CC(C)c1nc(N(C)S(C)(=O)=O)nc(-c2ccc(F)cc2)c1/C=C/[C@@H](O)C[C@@H](O)CC(=O)O [rosuvastatin] | – | – | 3.71
